Legend:
[1] = tested on: MV-4-11 cells; assay: Cell growth inhibition assay on AML cancer cells (CellTiter 96); type: cell-based; settings: Homo sapiens, MV4-11; cell growth inhibition on AML cancer cells, MV-4-11; read-out: MV-4-11, GI50
Experimental: The lower GI50 value means the higher inhibition activity.
Cell Growth Inhibition Activity on AML Cancer Cells (Cell Growth Inhibition Assay)
Cell growth Inhibition assay was performed to investigate the rate of inhibition of cell proliferation by the test compounds. MV-4-11 (human, Acute Myeloid Leukemia cell line) cells were cultured in Iscove's modified Dulbecco's medium (IMDM) including 10% fetal bovine serum (FBS), 1× penicillin/streptomycin (10,000 units/ml Penicillin, […] Streptomycin in 0.85% NaCl). MV-4-11 cells were harvested with IMDM medium and 5×10^4 cells/well were transferred to each well of 96 well culture plates (Nunc, #167008). The test compounds were treated with the serial dilution and duplicated for each concentration. For the serial dilution, the test compounds were repeatedly diluted with the same volume of media onto 96-well assay block (costar, #3956). After the dilution, each compound was added to each well. The background absorbance was also measured during the test compounds treatment by adding the IMDM media in replacement of test compound to the negative control plate. The plates were incubated for 3 days (72 hours) at 37° C. in the humidified incubator containing 5% CO2. On the last day, 20 μL of CellTiter 96 Aqueous One Solution (Promega #G3581) was added to the culture in each well and the plates were incubated for a few hours at 37° C. in the humidified incubator containing 5% CO2. After the incubation, the absorbance of each cell was measured at 490 nm using an EnVision (Perkinelmer, USA). The GI50 values were calculated using a Prism 3.0 program.

[2] = molecular target: T1, cDNA-expressed human hepatic CYP3A4 (Homo sapiens, UniProt P08684); assay: P450 CYP3A4 inhibitory activity screening (BFC substrate, fluorescence); type: biochemical; settings: P450 CYP3A4 inhibitory activity screening, fluorescent assay; read-out: CYP3A4 inhibition, IC50 (μM) fluorescent assay
T1 construct: purchased BD Gentest 456202
Experimental: P450 CYP3A4 Inhibitory Activity Screening
Assay was conducted in a 200 μL volume in 96-well microtiter plates using cDNA-expressed human hepatic CYP3A4 (supersome, BD Gentest™ #456202). 7-Benzyloxy-4-trifluoromethyl-coumarin (BFC) was used as a substrate for CYP3A4. Test articles and substrate BFC were dissolved in 100% acetonitrile. The final volume of acetonitrile in the incubation mixture was less than 1% (volume/volume). Potassium phosphate buffer (pH 7.4, final concentration 0.1 M), MgCl2 (final concentration 8.3 mM), EDTA (final concentration 1.67 mM), a test article stock solution, a CYP3A4 supersome and NADPH (final concentration 0.25 mM) were added to each well. The reaction was initiated by the addition of substrate (BFC, final concentration 30 µM) after a 10 min pre-incubation at 37° C. After 10 min incubation at 37° C., the reaction was terminated by the addition of 75 μL of acetonitrile:0.5 M Tris-base=4:1 (volume/volume). Thereafter, Fluorescent signal was measured using a fluorometer. BFC metabolite, 7-hydroxy-4-trifluoromethyl-coumarin, was measured using an excitation wavelength of 409 nm and an emission wavelength of 530 nm.

T1 sequence (P08684 whole entry): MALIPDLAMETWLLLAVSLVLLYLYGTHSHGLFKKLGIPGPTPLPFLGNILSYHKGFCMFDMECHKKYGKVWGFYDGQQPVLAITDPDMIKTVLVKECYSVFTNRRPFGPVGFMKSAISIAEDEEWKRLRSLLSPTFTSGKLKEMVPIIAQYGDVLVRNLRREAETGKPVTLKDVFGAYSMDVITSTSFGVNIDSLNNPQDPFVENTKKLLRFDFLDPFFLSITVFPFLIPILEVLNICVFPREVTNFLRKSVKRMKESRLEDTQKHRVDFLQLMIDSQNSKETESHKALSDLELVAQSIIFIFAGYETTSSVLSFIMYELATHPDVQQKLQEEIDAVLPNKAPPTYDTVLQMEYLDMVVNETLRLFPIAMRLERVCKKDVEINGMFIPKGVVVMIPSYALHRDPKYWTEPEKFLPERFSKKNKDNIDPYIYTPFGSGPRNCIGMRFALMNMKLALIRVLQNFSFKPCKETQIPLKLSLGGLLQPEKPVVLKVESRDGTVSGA

Compound	GI50 [1] [µM]	IC50 [2] [µM]
C=CCN1CC(=O)N2[C@@H](Cc3ccc(O)cc3)C(=O)N(Cc3cccc4c(C(C)=O)c[nH]c34)C[C@@H]2N1C(=O)NCc1ccccc1 [compound 6]	0.04	–
C=CCN1CC(=O)N2[C@@H](Cc3ccc(O)cc3)C(=O)N(Cc3ccc(OC)c(Cl)c3)C[C@@H]2N1C(=O)NCc1ccccc1 [compound 11]	1.97	–
C=CCOc1ccc(CN2C[C@H]3N(C(=O)CN(CC=C)N3C(=O)NCc3ccccc3)[C@@H](Cc3ccc(O)cc3)C2=O)cc1 [compound 12]	2.99	–
C=CCN1CC(=O)N2[C@@H](Cc3ccc(O)cc3)C(=O)N(Cc3ccccc3SC)C[C@@H]2N1C(=O)NCc1ccccc1 [compound 14]	0.16	–
C=CCN1CC(=O)N2[C@@H](Cc3ccc(O)cc3)C(=O)N(Cc3cccc(OC)c3OC)C[C@@H]2N1C(=O)NCc1ccccc1 [compound 15]	2.14	–
C=CCN1CC(=O)N2[C@@H](Cc3ccc(O)cc3)C(=O)N(Cc3cccc(C(C)(C)C)c3OC)C[C@@H]2N1C(=O)NCc1ccccc1 [compound 16]	0.63	–
C=CCN1CC(=O)N2[C@@H](Cc3ccc(O)cc3)C(=O)N(Cc3cccc(C(N)=O)c3)C[C@@H]2N1C(=O)NCc1ccccc1 [compound 17]	0.36	–
C=CCN1CC(=O)N2[C@@H](Cc3ccc(O)cc3)C(=O)N(Cc3cccc(C(=O)NOC)c3)C[C@@H]2N1C(=O)NCc1ccccc1 [compound 18]	0.36	–
C=CCN1CC(=O)N2[C@@H](Cc3ccc(O)cc3)C(=O)N(Cc3cccc(C(=O)NCCO)c3)C[C@@H]2N1C(=O)NCc1ccccc1 [compound 19]	0.45	–
C=CCN1CC(=O)N2[C@@H](Cc3ccc(O)cc3)C(=O)N(Cc3ccc(OC)c(-c4ccncc4)c3)C[C@@H]2N1C(=O)NCc1ccccc1 [compound 20]	2.24	–
C=CCN1CC(=O)N2[C@@H](Cc3ccc(O)cc3)C(=O)N(Cc3ccc(F)c(Br)c3)C[C@@H]2N1C(=O)NCc1ccccc1 [compound 21]	0.3	–
C=CCN1CC(=O)N2[C@@H](Cc3ccc(O)cc3)C(=O)N(Cc3cccc(C(=O)NNC(=O)OC(C)(C)C)c3)C[C@@H]2N1C(=O)NCc1ccccc1 [compound 23]	0.96	–
C=CCN1CC(=O)N2[C@@H](Cc3ccc(O)cc3)C(=O)N(Cc3cccc(C(=O)NN)c3)C[C@@H]2N1C(=O)NCc1ccccc1 [compound 24]	2.03	–
C=CCN1CC(=O)N2[C@@H](Cc3ccc(O)cc3)C(=O)N(Cc3ccc(F)c(-c4cccnc4)c3)C[C@@H]2N1C(=O)NCc1ccccc1 [compound 25]	0.24	–
C=CCN1CC(=O)N2[C@@H](Cc3ccc(O)cc3)C(=O)N(Cc3cccc(C(=O)N4CCCCC4)c3)C[C@@H]2N1C(=O)NCc1ccccc1 [compound 26]	0.78	–
C=CCN1CC(=O)N2[C@@H](Cc3ccc(O)cc3)C(=O)N(Cc3cccc(C(=O)N4CCCC4)c3)C[C@@H]2N1C(=O)NCc1ccccc1 [compound 27]	1.11	–

Compound	GI50 [1] [µM]	IC50 [2] [µM]
C=CCN1CC(=O)N2[C@@H](Cc3ccc(O)cc3)C(=O)N(Cc3cccc(C(=O)NC)c3)C[C@@H]2N1C(=O)NCc1ccccc1 [compound 29]	0.39	–
C=CCN1CC(=O)N2[C@@H](Cc3ccc(O)cc3)C(=O)N(Cc3cccc(C(=O)N(C)C)c3)C[C@@H]2N1C(=O)NCc1ccccc1 [compound 30]	0.82	–
C=CCN1CC(=O)N2[C@@H](Cc3ccc(O)cc3)C(=O)N(Cc3cccc(C(N)=O)c3[N+](=O)[O-])C[C@@H]2N1C(=O)NCc1ccccc1 [compound 31]	5.75	–
C=CCN1CC(=O)N2[C@@H](Cc3ccc(O)cc3)C(=O)N(Cc3cccc(C(=O)NCCCOCCCC)c3)C[C@@H]2N1C(=O)NCc1ccccc1 [compound 33]	0.65	–
C=CCN1CC(=O)N2[C@@H](Cc3ccc(O)cc3)C(=O)N(Cc3cccc(-c4ncc[nH]4)c3)C[C@@H]2N1C(=O)NCc1ccccc1 [compound 35]	1.12	–
C=CCN1CC(=O)N2[C@@H](Cc3ccc(O)cc3)C(=O)N(Cc3cccc(C(=O)NCCC)c3)C[C@@H]2N1C(=O)NCc1ccccc1 [compound 37]	0.24	–
C=CCN1CC(=O)N2[C@@H](Cc3ccc(O)cc3)C(=O)N(Cc3cccc(C(=O)NCC4CCCCC4)c3)C[C@@H]2N1C(=O)NCc1ccccc1 [compound 39]	0.96	–
C=CCN1CC(=O)N2[C@@H](Cc3ccc(O)cc3)C(=O)N(Cc3cccc(C(=O)NCC4CC4)c3)C[C@@H]2N1C(=O)NCc1ccccc1 [compound 40]	0.27	–
C=CCN1CC(=O)N2[C@@H](Cc3ccc(O)cc3)C(=O)N(Cc3cccc(C(=O)Nc4cc[nH]n4)c3)C[C@@H]2N1C(=O)NCc1ccccc1 [compound 41]	1.56	–
C=CCN1CC(=O)N2[C@@H](Cc3ccc(O)cc3)C(=O)N(Cc3cccc(C(N)=O)n3)C[C@@H]2N1C(=O)NCc1ccccc1 [compound 43]	0.31	–
C=CCN1CC(=O)N2[C@@H](Cc3ccc(O)cc3)C(=O)N(Cc3cccc(C(N)=O)c3)C[C@@H]2N1C(=O)NCc1ccccc1 [compound 53]	–	> 50
C=CCN1CC(=O)N2[C@@H](Cc3ccc(OS(N)(=O)=O)cc3)C(=O)N(Cc3cccc(C(=O)O)c3)C[C@@H]2N1C(=O)NCc1ccccc1 [compound 55]	–	> 50
C=CCN1CC(=O)N2[C@@H](Cc3ccc(O)cc3)C(=O)N(Cc3cccc(C(=O)O)n3)C[C@@H]2N1C(=O)NCc1ccccc1 [compound 56]	–	> 50
C=CCN1CC(=O)N2[C@@H](Cc3ccc(O)cc3)C(=O)N(Cc3cccc4c3ncn4CC(N)=O)C[C@@H]2N1C(=O)NCc1ccccc1 [compound 58]	–	> 50
C=CCN1CC(=O)N2[C@@H](Cc3ccc(O)cc3)C(=O)N(Cc3cccc4c(C(C)=O)c[nH]c34)C[C@@H]2N1C(=O)NCc1ccccc1 [compound 60]	–	4.84
C=CCN1CC(=O)N2[C@@H](Cc3ccc(O)cc3)C(=O)N(Cc3cccc4c(C(=O)C5CC5)c[nH]c34)C[C@@H]2N1C(=O)NCc1ccccc1 [compound 61]	–	5.92

Other lines, results leading:

GI50 [1] [µM]	IC50 [2] [µM]	Compound
0.19	–	C=CCN1CC(=O)N2[C@@H](Cc3ccc(O)cc3)C(=O)N(Cc3cccc4c3ncn4CC(N)=O)C[C@@H]2N1C(=O)NCc1ccccc1 [compound 1]
0.6	–	C=CCN1CC(=O)N2[C@@H](Cc3ccc(O)cc3)C(=O)N(Cc3cccc4c3OC(F)(F)O4)C[C@@H]2N1C(=O)NCc1ccccc1 [compound 2]
0.18	–	C=CCN1CC(=O)N2[C@@H](Cc3ccc(O)cc3)C(=O)N(Cc3csc4ccccc34)C[C@@H]2N1C(=O)NCc1ccccc1 [compound 3]
1.32	–	C=CCN1CC(=O)N2[C@@H](Cc3ccc(O)cc3)C(=O)N(Cc3ccc(OC)cc3F)C[C@@H]2N1C(=O)NCc1ccccc1 [compound 10]
2.01	–	C=CCN1CC(=O)N2[C@@H](Cc3ccc(O)cc3)C(=O)N(Cc3ccccc3N3CCCC3)C[C@@H]2N1C(=O)NCc1ccccc1 [compound 13]
0.74	–	C=CCN1CC(=O)N2[C@@H](Cc3ccc(O)cc3)C(=O)N(Cc3cccc(-c4cccnc4OC)c3)C[C@@H]2N1C(=O)NCc1ccccc1 [compound 22]
1.35	–	C=CCN1CC(=O)N2[C@@H](Cc3ccc(O)cc3)C(=O)N(Cc3ccccc3-n3cnnn3)C[C@@H]2N1C(=O)NCc1ccccc1 [compound 28]
> 50	–	C=CCN1CC(=O)N2[C@@H](Cc3ccc(O)cc3)C(=O)N(Cc3ccc(CP(=O)(O)O)cc3)C[C@@H]2N1C(=O)NCc1ccccc1 [compound 32]
1.25	–	C=CCN1CC(=O)N2[C@@H](Cc3ccc(O)cc3)C(=O)N(Cc3cccc(Cl)c3N(C)C)C[C@@H]2N1C(=O)NCc1ccccc1 [compound 34]
0.64	–	C=CCN1CC(=O)N2[C@@H](Cc3ccc(O)cc3)C(=O)N(Cc3cccc(C(=O)OCC)n3)C[C@@H]2N1C(=O)NCc1ccccc1 [compound 42]
0.55	–	C=CCN1CC(=O)N2[C@@H](Cc3ccc(O)cc3)C(=O)N(Cc3cccc(C(=O)NC)n3)C[C@@H]2N1C(=O)NCc1ccccc1 [compound 44]
–	> 50	C=CCN1CC(=O)N2[C@@H](Cc3ccc(O)cc3)C(=O)N(Cc3cccc(C(=O)O)c3)C[C@@H]2N1C(=O)NCc1ccccc1 [compound 54]
–	> 50	C=CCN1CC(=O)N2[C@@H](Cc3ccc(O)cc3)C(=O)N(Cc3ccc(CP(=O)(O)O)cc3)C[C@@H]2N1C(=O)NCc1ccccc1 [compound 57]
–	2.63	C=CCN1CC(=O)N2C(Cc3ccc(O)cc3)C(=O)N(Cc3cccc4c(-c5ccccc5)cn(S(=O)(=O)c5ccccc5)c34)C[C@@H]2N1C(=O)NCc1ccccc1 (stereo partly shown) [compound 59]
